Tests used:
[1] = Stability of substrate in chemical blanks (HEPES-NaOH buffer without cells); assay type: physicochemical; conditions: HEPES-NaOH buffer pH 7.7, 139 hours, concentration constant (0.7 w/w %)
Method: 1 ml Of disintegrated cells of each of the three strains was incubated in a HEPES-NaOH buffer (20 mM) pH 7.7, to which pyridoxal-5-phosphate (0.01 mM) was added as a cofactor and D-leucine amide (60.8 mM) as a substrate in a total volume of 10 ml (0.79 w/w % D-leucine amide). After 0 and 139 hours 1 ml samples were taken (of which the exact weight was measured) and the reaction in these samples was stopped by adding 1 ml methanol (of which the exact weight was measured too; to be able to calculate dilution factors). Stopped reaction mixtures were centrifuged to remove particulates. The supernatants were frozen at −86° C. until HPLC analysis according to the method given in Example 1. […]
From the table it can be seen that α-H-α-amino acid amide racemase activity is present in the disintegrated cells of Agrobacterium rhizogenes Na, Agrobacterium rhizogenes Bi and Arthrobacter nicotianae as D-leucine amide is converted into L-leucine; this conversion is not detected in the chemical blanks. In the chemical blanks no D-leucine or L-leucine could be detected even after 139 hours; the D-leucine amide concentration was constant (0.7 w/w %) meaning that D-leucine amide is very stable under the applied reaction conditions.

[2] = system: α-H-α-amino acid amide racemase from Ochrobactrum anthropi IA; assay: Substrate specificity, CFE from E. coli TOP10/pKEC_AZAR_3 (Example 7); assay type: biochemical; conditions: relative to the activity towards D-leucine amide; 75 mM substrate, 20 mM EDTA, pH 8.0, 37° C.
Method: Two pre-cultures of E. coli TOP10/pKEC_AZAR—3 (see Example 4) were prepared by inoculation of 2 erlenmeyer flasks with 100 ml of 2*TY medium (10 g/l Yeast extract, 16 g/l Tryptone, 5 g/l NaCl) containing 50 mg/l of kanamycin with 10 μl of a glycerol stock per flask. After overnight cultivation at 28° C. and 200 rpm, the pre-cultures were pooled, and subsequently used to inoculate 2 erlenmeyer flasks each containing 1 l of the same medium. Also these flasks were cultivated at 28° C. and 200 rpm for 16-18 h. Cells were harvested by centrifugation (15 min. at 6,200×g, 4° C.), washed with 20 mM HEPES-NaOH, pH 7.5, pooled, weighed, and resuspended in a solution containing 20 mM HEPES-NaOH, pH 7.5, 20 μM pyridoxal-5-phosphate, and 1.3 mM of dithiothreitol in a 1:3 ratio of wet weight cells to solution. Then, cells were disintegrated by 10 min. sonification with a Soniprep 150 of MSE operated at maximum amplitude using time intervals of 10 sec. (i.e., 10 sec. sonification, 10 sec. cooling) and cooling in ice/acetone. Particles were removed by centrifugation, after which sucrose was added to the cell free extract to a final concentration of 0.25 M. The resulting cell free extract (CFE) was stored in aliquots at −20° C. E. coli TOP10/pBAD/Myc-HisC (Invitrogen) cells were treated in exactly the same way and served as negative control.
The substrate specificity of the α-H-α-amino acid racemase from O. anthropi IA was determined by measuring the racemase activity of the above-mentioned CFE towards a number of enantiomerically pure amino acid amides. Each reaction mixture of 10 ml (including the CFE) contained 50 mM HEPES-NaOH, pH 8.0, 20 μM pyridoxal-5-phosphate, 0.4 mg/ml BSA, 1 mM dithiothreitol, 20 mM EDTA and 75 mM of one of the amino acid amides tested. Reactions were started by the addition of 1 ml of the thawed CFE of E. coli TOP10/pKEC_AZAR—3 or E. coli TOP10/pBAD/Myc-HisC (blank) and were incubated at 37° C. At regular time intervals samples of 1 ml were taken and transferred to vials containing 1 ml of 1M H3PO4 to stop the reaction. After sufficient dilution of the samples in 0.4 M borate buffer pH 9.4, the mixtures obtained were analyzed using HPLC to determine the exact concentrations of the two amino acid and two amino acid amide enantiomers according to the following method.
The initial activity for the different substrates tested was calculated from the linear parts of the progress curves, in which the conversion was plotted against the reaction time. Use of the linear part of the progress curves secured that only samples taken at time points at which the substrate concentration was still sufficiently high, were used for the calculations. The conversion was calculated by dividing the amount of amino acid and amino acid amide formed via the racemase reaction (so with the opposite stereochemistry compared to the substrate molecule) by the total amount of two amino acid enantiomers and the two amino acid amide enantiomers.

With `CC(C)C[C@@H](N)C(N)=O` [D-leucine amide] the “stability under the applied reaction conditions” value [1] was “very stable” and the Rel. initial activity [2] was 100%.

From patent US7371555B2, “Polypeptides having α-H-α-amino acid amide racemase activity and nucleic acids encoding the same” (DSM IP Assets B.V., priority 2002, dated 2008)
